Reference: ChEMBL document CHEMBL3885861, “Open TG-GATES”

Species on record: Rattus norvegicus
Test: Open TG-GATES - Regimen: Single
Assay type: toxicity, organism-based, Sprague-Dawley
Set-up: regimen Single, gender Male, age 6 weeks
Settings: in vivo, po, route gavage; for APTT / Bas / Eos / Fbg / Hb / Ht / Lym / MCH / MCHC / MCV / Mono / Neu / PT / Plat / RBC / Ret / WBC: tissue Blood; for KIDNEY_L / KIDNEY_R / KIDNEY_TOTAL: tissue Kidney; for LIVER: tissue Liver; for A/G / ALP / ALT / AST / BUN / CRE / Ca / Cl / DBIL / GLC / IP / K / LDH / Na / PL / RALB / TBIL / TC / TG / TP / gamma-GTP: tissue Plasma
[1] = 0 mg/kg, 3 h, dose level Control
[2] = 0 mg/kg, 6 h, dose level Control
[3] = 0 mg/kg, 9 h, dose level Control
[4] = 0 mg/kg, 24 h, dose level Control

## Brc1ccccc1 [BROMOBENZENE]
[1]
  TERMINAL_BW: 190.9 g
  APTT: 15.7 s
  Bas: 0.2%
  Eos: 0.8%
  Fbg: 247.4 mg/dL
  Hb: 13.1 g/dL
  Ht: 39.4%
  Lym: 72.8%
  MCH: 21.2 pg
  MCHC: 33.2%
  MCV: 63.8 fL
  Mono: 4.2%
  Neu: 21.6%
  PT: 12.4 s
  Plat: 117.7 x10_4/uL
  RBC: 618.4 x10_4/ul
  Ret: 9.8%
  WBC: 108.2 x10_2/uL
  KIDNEY_L: 0.9 g
  KIDNEY_R: 0.8 g
  KIDNEY_TOTAL: 1.7 g
  LIVER: 8.1 g
  A/G: 0.9
  ALP: 1539.4 IU/L
  ALT: 46.2 IU/L
  AST: 83.2 IU/L
  BUN: 10.2 mg/dL
  CRE: 0.2 mg/dL
  Ca: 11.2 mg/dL
  Cl: 106.2 meq/L
  DBIL: 0.022 mg/dL
  GLC: 186.4 mg/dL
  IP: 9.4 mg/dL
  K: 3.8 meq/L
  LDH: 84.2 IU/L
  Na: 141.6 meq/L
  PL: 159.2 mg/dL
  RALB: 2.6 g/dL
  TBIL: 0.058 mg/dL
  TC: 83.6 mg/dL
  TG: 88.4 mg/dL
  TP: 5.5 g/dL
  gamma-GTP: 2 IU/L
[2]
  TERMINAL_BW: 191.8 g
  APTT: 15.7 s
  Bas: 0%
  Eos: 1%
  Fbg: 276.2 mg/dL
  Hb: 13 g/dL
  Ht: 39.1%
  Lym: 75.8%
  MCH: 21.4 pg
  MCHC: 33.3%
  MCV: 64.3 fL
  Mono: 3.8%
  Neu: 19.2%
  PT: 12.4 s
  Plat: 109.8 x10_4/uL
  RBC: 608.2 x10_4/ul
  Ret: 9.3%
  WBC: 92.3 x10_2/uL
  KIDNEY_L: 0.8 g
  KIDNEY_R: 0.8 g
  KIDNEY_TOTAL: 1.6 g
  LIVER: 7.6 g
  A/G: 0.9
  ALP: 1707 IU/L
  ALT: 40.8 IU/L
  AST: 76.6 IU/L
  BUN: 9.2 mg/dL
  CRE: 0.2 mg/dL
  Ca: 11 mg/dL
  Cl: 107.4 meq/L
  DBIL: 0.01 mg/dL
  GLC: 184.2 mg/dL
  IP: 10 mg/dL
  K: 4 meq/L
  LDH: 69.6 IU/L
  Na: 141.4 meq/L
  PL: 149.2 mg/dL
  RALB: 2.6 g/dL
  TBIL: 0.054 mg/dL
  TC: 83.2 mg/dL
  TG: 37.8 mg/dL
  TP: 5.5 g/dL
  gamma-GTP: 1.2 IU/L
[3]
  TERMINAL_BW: 191.1 g
  APTT: 15.4 s
  Bas: 0%
  Eos: 1%
  Fbg: 258.4 mg/dL
  Hb: 12.9 g/dL
  Ht: 38.8%
  Lym: 74.8%
  MCH: 21.5 pg
  MCHC: 33.4%
  MCV: 64.4 fL
  Mono: 3%
  Neu: 21.2%
  PT: 12.3 s
  Plat: 120.5 x10_4/uL
  RBC: 603 x10_4/ul
  Ret: 9.6%
  WBC: 75.5 x10_2/uL
  KIDNEY_L: 0.8 g
  KIDNEY_R: 0.8 g
  KIDNEY_TOTAL: 1.6 g
  LIVER: 7.4 g
  A/G: 0.9
  ALP: 1515.4 IU/L
  ALT: 36.2 IU/L
  AST: 70.2 IU/L
  BUN: 11.4 mg/dL
  CRE: 0.2 mg/dL
  Ca: 10.8 mg/dL
  Cl: 105.8 meq/L
  DBIL: 0.006 mg/dL
  GLC: 193.4 mg/dL
  IP: 11.8 mg/dL
  K: 3.6 meq/L
  LDH: 81.2 IU/L
  Na: 143.2 meq/L
  PL: 146.8 mg/dL
  RALB: 2.6 g/dL
  TBIL: 0.052 mg/dL
  TC: 84.2 mg/dL
  TG: 39.6 mg/dL
  TP: 5.6 g/dL
  gamma-GTP: 1.4 IU/L
[4]
  TERMINAL_BW: 196.6 g
  APTT: 15.4 s
  Bas: 0%
  Eos: 1%
  Fbg: 270.2 mg/dL
  Hb: 12.6 g/dL
  Ht: 37.4%
  Lym: 74.6%
  MCH: 21.1 pg
  MCHC: 33.8%
  MCV: 62.6 fL
  Mono: 3.4%
  Neu: 19.8%
  PT: 12.3 s
  Plat: 114.7 x10_4/uL
  RBC: 598.2 x10_4/ul
  Ret: 8.1%
  WBC: 81.7 x10_2/uL
  KIDNEY_L: 0.8 g
  KIDNEY_R: 0.8 g
  KIDNEY_TOTAL: 1.7 g
  LIVER: 8.7 g
  A/G: 0.9
  ALP: 1600.6 IU/L
  ALT: 50.8 IU/L
  AST: 79.6 IU/L
  BUN: 14.2 mg/dL
  CRE: 0.2 mg/dL
  Ca: 10.5 mg/dL
  Cl: 105.2 meq/L
  DBIL: 0.004 mg/dL
  GLC: 187.4 mg/dL
  IP: 8 mg/dL
  K: 4.2 meq/L
  LDH: 114.4 IU/L
  Na: 141.4 meq/L
  PL: 136.8 mg/dL
  RALB: 2.6 g/dL
  TBIL: 0.04 mg/dL
  TC: 76.8 mg/dL
  TG: 55.4 mg/dL
  TP: 5.5 g/dL
  gamma-GTP: 1.4 IU/L
30 mg/kg, 3 h, dose level Low
  TERMINAL_BW: 190.8 g
  APTT: 14.7 s
  Bas: 0%
  Eos: 0.8%
  Fbg: 276.2 mg/dL
  Hb: 12.9 g/dL
  Ht: 38.6%
  Lym: 77%
  MCH: 21.7 pg
  MCHC: 33.6%
  MCV: 64.5 fL
  Mono: 3%
  Neu: 18.4%
  PT: 12.3 s
  Plat: 116 x10_4/uL
  RBC: 597.6 x10_4/ul
  Ret: 9.5%
  WBC: 95.3 x10_2/uL
  KIDNEY_L: 0.8 g
  KIDNEY_R: 0.8 g
  KIDNEY_TOTAL: 1.6 g
  LIVER: 7.9 g
  A/G: 0.9
  ALP: 1807.2 IU/L
  ALT: 47.6 IU/L
  AST: 80 IU/L
  BUN: 11 mg/dL
  CRE: 0.2 mg/dL
  Ca: 11.4 mg/dL
  Cl: 106.2 meq/L
  DBIL: 0.024 mg/dL
  GLC: 182 mg/dL
  IP: 9.4 mg/dL
  K: 4 meq/L
  LDH: 75.6 IU/L
  Na: 141.6 meq/L
  PL: 174.2 mg/dL
  RALB: 2.6 g/dL
  TBIL: 0.056 mg/dL
  TC: 93.6 mg/dL
  TG: 80.6 mg/dL
  TP: 5.7 g/dL
  gamma-GTP: 1.2 IU/L
30 mg/kg, 6 h, dose level Low
  TERMINAL_BW: 192.5 g
  APTT: 15.9 s
  Bas: 0%
  Eos: 1%
  Fbg: 250 mg/dL
  Hb: 12.8 g/dL
  Ht: 38.3%
  Lym: 78.6%
  MCH: 21.7 pg
  MCHC: 33.3%
  MCV: 65 fL
  Mono: 3.4%
  Neu: 16.6%
  PT: 12.6 s
  Plat: 110.6 x10_4/uL
  RBC: 590.4 x10_4/ul
  Ret: 9.4%
  WBC: 105.9 x10_2/uL
  KIDNEY_L: 0.8 g
  KIDNEY_R: 0.8 g
  KIDNEY_TOTAL: 1.6 g
  LIVER: 7.4 g
  A/G: 0.9
  ALP: 1769.6 IU/L
  ALT: 41 IU/L
  AST: 75.8 IU/L
  BUN: 10.6 mg/dL
  CRE: 0.2 mg/dL
  Ca: 11.1 mg/dL
  Cl: 107.2 meq/L
  DBIL: 0.018 mg/dL
  GLC: 180.8 mg/dL
  IP: 10.3 mg/dL
  K: 3.9 meq/L
  LDH: 71.2 IU/L
  Na: 141.8 meq/L
  PL: 139.2 mg/dL
  RALB: 2.5 g/dL
  TBIL: 0.058 mg/dL
  TC: 74.6 mg/dL
  TG: 53 mg/dL
  TP: 5.3 g/dL
  gamma-GTP: 1.4 IU/L
30 mg/kg, 9 h, dose level Low
  TERMINAL_BW: 193.2 g
  APTT: 15.6 s
  Bas: 0%
  Eos: 1%
  Fbg: 262.2 mg/dL
  Hb: 13.3 g/dL
  Ht: 39.4%
  Lym: 70.8%
  MCH: 21.5 pg
  MCHC: 33.7%
  MCV: 64 fL
  Mono: 3.2%
  Neu: 24.6%
  PT: 12.7 s
  Plat: 118.3 x10_4/uL
  RBC: 617.2 x10_4/ul
  Ret: 9%
  WBC: 92.1 x10_2/uL
  KIDNEY_L: 0.8 g
  KIDNEY_R: 0.8 g
  KIDNEY_TOTAL: 1.6 g
  LIVER: 7 g
  A/G: 0.9
  ALP: 1907.6 IU/L
  ALT: 41.2 IU/L
  AST: 73.4 IU/L
  BUN: 10.2 mg/dL
  CRE: 0.1 mg/dL
  Ca: 10.7 mg/dL
  Cl: 106.2 meq/L
  DBIL: 0.016 mg/dL
  GLC: 189.6 mg/dL
  IP: 11.5 mg/dL
  K: 3.9 meq/L
  LDH: 72.8 IU/L
  Na: 142.2 meq/L
  PL: 136.8 mg/dL
  RALB: 2.5 g/dL
  TBIL: 0.058 mg/dL
  TC: 79.6 mg/dL
  TG: 41.6 mg/dL
  TP: 5.3 g/dL
  gamma-GTP: 1.6 IU/L
30 mg/kg, 24 h, dose level Low
  TERMINAL_BW: 199 g
  APTT: 15.2 s
  Bas: 0%
  Eos: 1.2%
  Fbg: 248.6 mg/dL
  Hb: 12.7 g/dL
  Ht: 37.2%
  Lym: 71.6%
  MCH: 21.4 pg
  MCHC: 34%
  MCV: 63.1 fL
  Mono: 3.4%
  Neu: 23.6%
  PT: 12.3 s
  Plat: 117.9 x10_4/uL
  RBC: 589.2 x10_4/ul
  Ret: 8.2%
  WBC: 96.4 x10_2/uL
  KIDNEY_L: 0.8 g
  KIDNEY_R: 0.8 g
  KIDNEY_TOTAL: 1.7 g
  LIVER: 9.2 g
  A/G: 0.9
  ALP: 1811.4 IU/L
  ALT: 52.8 IU/L
  AST: 78.8 IU/L
  BUN: 15.4 mg/dL
  CRE: 0.2 mg/dL
  Ca: 10.4 mg/dL
  Cl: 106.2 meq/L
  DBIL: 0.012 mg/dL
  GLC: 196.8 mg/dL
  IP: 8.1 mg/dL
  K: 4.2 meq/L
  LDH: 112.6 IU/L
  Na: 141.6 meq/L
  PL: 137.4 mg/dL
  RALB: 2.5 g/dL
  TBIL: 0.05 mg/dL
  TC: 71.8 mg/dL
  TG: 79.4 mg/dL
  TP: 5.4 g/dL
  gamma-GTP: 0.8 IU/L
